Assay results reported in PubChem BioAssay AID1259346.
Active and inactive are the calls of the source.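 How the source made its calls: active means IC50 below 1 nM; inactive means the rest.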

system: HCT116 TERT promoter luciferase reporter, 16 h; experiment: TERT promoter activity modulators, dose response, HCT116 cells, human (AID 1259346)

IC50 | Structure (SMILES)
3600 nM (inactive) | Cc1nc2cc(-c3ccc(C#CCO)cc3)nn2c(C)c1CCC(=O)O
< 1 nM | COC(=O)CCc1c(C)nc2cc(-c3ccc(OC)cc3)nn2c1C
346 nM (inactive) | Cc1nc2cc(-c3cccc(Br)c3)nn2c(C)c1CCC(=O)O
7 nM (inactive) | Cc1nc2cc(-c3ccccc3)nn2c(C)c1CCC(=O)O
< 1 nM | Cc1nc2cc(-c3ccc(Br)cc3)nn2c(C)c1CCC(=O)O
